Data reported in patent US11787825B2 (priority 2021, dated 2023).
Converted amounts (≈) assume the structure as drawn. Where two headings read alike, the source gives them in different places. Marks after values point to notes of the source that are not given here.

Assays:
[1] = Beagle, in vivo, po; for Dog F % (suspension): pH 2
physchem = settings: 25 °C, thermodynamic from solid
[2] = 0.1N HCL, 1.0% DMSO, 24-hour incubation at ambient temperature, maximum theoretical compound concentration 100 μM
[3] = 1×PBS buffer (pH 7.4), 1.0% DMSO, 24-hour incubation at ambient temperature, maximum theoretical compound concentration 100 μM

| SMILES | Dog F % (suspension) [1] | pH 2 solubility [2] | pH 7 solubility [3] | pH 2 solubility (pH 2) | pH 7 solubility (pH 7.4) | solubility (physchem; fassif) | further results |
| --- | --- | --- | --- | --- | --- | --- | --- |
| CC(C)(C#Cc1ccc(-c2ccc(Cl)c3c(N(C(=O)/C=C/C(=O)N(CCC(=O)O)[C@@H](CC(=O)O)C(=O)O)S(C)(=O)=O)nn(CC(F)(F)F)c23)c([C@H](Cc2cc(F)cc(F)c2)NC(=O)Cn2nc(C(F)(F)F)c3c2C(F)(F)[C@@H]2C[C@H]32)n1)S(C)(=O)=O [Compound 3, N-(2-carboxyethyl)-N—((E)-4-(N-(4-chloro-7-(2-((S)-1-(2-((3bS,4aR)-5,5-difluoro-3-(trifluoromethyl)-3b,4,4a,5-tetrahydro-111-cyclopropa[3,4]cyclopenta[1,2-c]pyrazol-1-yl)acetamido)-2-(3,5-difluorophenyl)ethyl)-6-(3-methyl-3-(methylsulfonyl)but-1-yn-1-yl)pyridin-3-yl)-1-(2,2,2-trifluoroethyl)-1H-indazol-3-yl)methylsulfonamido)-4-oxobut-2-enoyl)-L-aspartic acid] | 10% |  |  |  |  |  |  |
| CC(C)(C#Cc1ccc(-c2ccc(Cl)c3c(N(C(=O)CCCN(C(=O)OCOP(=O)(O)O)[C@H](C(=O)O)c4ccccc4)S(C)(=O)=O)nn(CC(F)(F)F)c23)c([C@H](Cc2cc(F)cc(F)c2)NC(=O)Cn2nc(C(F)(F)F)c3c2C(F)(F)[C@@H]2C[C@H]32)n1)S(C)(=O)=O [Compound 40] | 5% | 1 μM | 100 μM |  |  |  |  |
| CC(C)(CC(=O)N(c1nn(CC(F)(F)F)c2c(-c3ccc(C#CC(C)(C)S(C)(=O)=O)nc3[C@H](Cc3cc(F)cc(F)c3)NC(=O)Cn3nc(C(F)(F)F)c4c3C(F)(F)[C@@H]3C[C@H]43)ccc(Cl)c12)S(C)(=O)=O)CN(CC(=O)O)C(=O)OCOP(=O)(O)O [Compound 42, N-(4-(N-(4-chloro-7-(2-((S)-1-(2-((3bS,4aR)-5,5-difluoro (trifluoromethyl)-3b,4,4a,5-tetrahydro-1H-cyclopropa[3,4]cyclopenta[1,2-c]pyrazolyl)acetamido)-2-(3,5-difluorophenyl)ethyl)-6-(3-methyl-3-(methylsulfonyl)but-1-ynyl)pyridin-3-yl)-1-(2,2,2-trifluoroethyl)-1H-indazol-3-yl)methylsulfonamido)-2,2-dimethyl-4-oxobutyl)-N-(((phosphonooxy)methoxy)carbonyl)glycine] | 9% | 1 μM | 100 μM |  |  |  |  |
| Cc1cc(CC(=O)N[C@@H](CC(=O)O)C(=O)O)c(C(C)(C)CC(=O)N(c2nn(CC(F)(F)F)c3c(-c4ccc(C#CC(C)(C)S(C)(=O)=O)nc4[C@H](Cc4cc(F)cc(F)c4)NC(=O)Cn4nc(C(F)(F)F)c5c4C(F)(F)[C@@H]4C[C@H]54)ccc(Cl)c23)S(C)(=O)=O)c(OP(=O)(O)O)c1 [Compound 59, (2-(2-(4-(N-(4-chloro-7-(2-((S)-1-(2-((3bS,4aR)-5,5-difluoro-3-(trifluoromethyl)-3b,4,4a,5-tetrahydro-1H-cyclopropa[3,4]cyclopenta[1,2-c]pyrazolyl)acetamido)-2-(3,5-difluorophenyl)ethyl)-6-(3-methyl-3-(methylsulfonyl)but-1-ynyl)pyridin-3-yl)-1-(2,2,2-trifluoroethyl)-1H-indazol-3-yl)methylsulfonamido)-2-methyloxobutan-2-yl)-5-methyl-3-(phosphonooxy)phenyl)acetyl)-L-aspartic acid] |  |  |  |  |  |  | Dog F % (solution) [1]: 27 ^c % |
| Cc1cc(C(=O)NCP(=O)(O)O)cc(OP(=O)(O)O)c1C(C)(C)CC(=O)N(c1nn(CC(F)(F)F)c2c(-c3ccc(C#CC(C)(C)S(C)(=O)=O)nc3[C@H](Cc3cc(F)cc(F)c3)NC(=O)Cn3nc(C(F)(F)F)c4c3C(F)(F)[C@@H]3C[C@H]43)ccc(Cl)c12)S(C)(=O)=O [Compound 60, ((4-(4-(N-(4-chloro-7-(2-((S)-1-(2-((3bS,4aR)-5,5-difluoro-3-(trifluoromethyl)-3b,4,4a,5-tetrahydro-1H-cyclopropa[3,4]cyclopenta[1,2-c]pyrazol-1-yl)acetamido)-2-(3,5-difluorophenyl)ethyl)-6-(3-methyl-3-(methylsulfonyl)but-1-yn-1-yl)pyridin-3-yl)-1-(2,2,2-trifluoroethyl)-1H-indazol-3-yl)methylsulfonamido)-2-methyl-4-oxobutan-2-yl)-3-methyl-5-(phosphonooxy)benzamido)methyl)phosphonic acid] |  |  |  | 1/64 μM | 1/64 μM | > 10000 µg/mL |  |
| Cc1cc(CC(=O)NCP(=O)(O)O)c(C(C)(C)CC(=O)N(c2nn(CC(F)(F)F)c3c(-c4ccc(C#CC(C)(C)S(C)(=O)=O)nc4[C@H](Cc4cc(F)cc(F)c4)NC(=O)Cn4nc(C(F)(F)F)c5c4C(F)(F)[C@@H]4C[C@H]54)ccc(Cl)c23)S(C)(=O)=O)c(OP(=O)(O)O)c1 [Compound 61, ((2-(2-(4-(N-(4-chloro-7-(2-((S)-1-(2-((3bS,4aR)-5,5-difluoro-3-(trifluoromethyl)-3b,4,4a,5-tetrahydro-1H-cyclopropa[3,4]cyclopenta[1,2-c]pyrazol-1-yl)acetamido)-2-(3,5-difluorophenyl)ethyl)-6-(3-methyl-3-(methylsulfonyl)but-1-yn-1-yl)pyridin-3-yl)-1-(2,2,2-trifluoroethyl)-1H-indazol-3-yl)methylsulfonamido)-2-methyl-4-oxobutan-2-yl)-5-methyl-3-(phosphonooxy)phenyl)acetamido)methyl)phosphonic acid] |  |  |  | 2/70 μM | 2/70 μM | > 10000 µg/mL |  |
| Cc1cc(C(=O)N[C@@H](CC(=O)O)C(=O)O)cc(OP(=O)(O)O)c1C(C)(C)CC(=O)N(c1nn(CC(F)(F)F)c2c(-c3ccc(C#CC(C)(C)S(C)(=O)=O)nc3[C@H](Cc3cc(F)cc(F)c3)NC(=O)Cn3nc(C(F)(F)F)c4c3C(F)(F)[C@@H]3C[C@H]43)ccc(Cl)c12)S(C)(=O)=O [Compound 65, (4-(4-(N-(4-chloro-7-(2-((S)-1-(2-((3bS,4aR)-5,5-difluoro-3-(trifluoromethyl)-3b,4,4a,5-tetrahydro-1H-cyclopropa[3,4]cyclopenta[1,2-c]pyrazol-1-yl)acetamido)-2-(3,5-difluorophenyl)ethyl)-6-(3-methyl-3-(methylsulfonyl)but-1-yn-1-yl)pyridin-3-yl)-1-(2,2,2-trifluoroethyl)-1H-indazol-3-yl)methylsulfonamido)-2-methyl-4-oxobutan-2-yl)-3-methyl-5-(phosphonooxy)benzoyl)-L-aspartic acid] |  |  |  | 7/68 μM | 7/68 μM | 1100 µg/mL (≈ 787 µM) |  |
| CC(C)(C#Cc1ccc(-c2ccc(Cl)c3c(NS(C)(=O)=O)nn(CC(F)(F)F)c23)c([C@H](Cc2cc(F)cc(F)c2)NC(=O)Cn2nc(C(F)(F)F)c3c2C(F)(F)[C@@H]2C[C@H]32)n1)S(C)(=O)=O [Intermediate 5, N—((S)-1-(3-(4-chloro-3-(methylsulfonamido)-1-(2,2,2-trifluoroethyl)-1H-indazol-7-yl)-6-(3-methyl-3-(methylsulfonyl)but-1-yn-1-yl)pyridin-2-yl)-2-(3,5-difluorophenyl)ethyl)-2-((3bS,4aR)-5,5-difluoro-3-(trifluoromethyl)-3b,4,4a,5-tetrahydro-1H-cyclopropa[3,4]cyclopenta[1,2-c]pyrazol-1-yl)acetamide, reference compound] |  | 0.11 μM | 0.32 μM |  |  |  | solubility (physchem; fasted state simulated intestinal fluid (FaSSIF), fassif): 4 µg/mL (≈ 4.13 µM); solubility (physchem; fed state simulated intestinal fluid (FeSSIF), fessif): 4.2 µg/mL (≈ 4.34 µM) |
